Results reported in US7781470B2, “Aminodicarboxylic acid derivatives having pharmaceutical properties” (Bayer Schering Pharma Aktiengesellschaft, priority 1999, dated 2010).
Where a name gives a salt, the structure may show the parent alone.

Columns and labels:
arteria saphena rings = assay: Vasal relaxant action in vitro (phenylephrin-contracted artery rings); assay type: cell-based, Rabbits; conditions: Oryctolagus cuniculus; concentration reducing phenylephrin-induced contraction by 50%; rabbit arteria saphena rings; read-out: IC50 vasorelaxant action in vitro
Protocol: Rabbits are anaesthetized by intravenous injection of thiopental sodium […] (about 50 mg/kg) and exsanguinated. The arteria saphena is removed and divided into 3 mm wide rings. The rings are individually mounted on in each case one triangular pair of hooks, open at the end, made of 0.3 mm strong special wire (Remanium®). Under a pretension, each ring is transferred into 5 ml organ baths containing a warm, carbogen-aerated Krebs-Henseleit solution at 37° C. having the following composition (mM): NaCl: 119; KCl: 4.8; CaCl2×2H2O: 1; MgSO4×7 H2O: 1.4; KH2PO4: 1.2; NaHCO3: 25; glucose: 10; bovine serum albumin: 0.001%. The contractility is detected using Statham UC2 cells, amplified and digitalized by means of A/D converters (DAS-1802 HC, Keithley Instruments Munich), and recorded in parallel on linear recorders. Contractions are induced by addition of phenylephrin.
After several (in general 4) control cycles, the substance to be investigated is added in each further passage in increasing dosage, and the height of the contraction achieved under the influence of the test substance is compared with the height of the contraction achieved in the last preliminary passage. From this, the concentration which is necessary in order to reduce the contraction achieved in the preliminary control by 50% ((IC50) is calculated. The standard administration volume is 5 μl. The proportion of DMSO in the bath solution corresponds to 0.1%.

[1] = target: T1, Haem-containing sGC (recombinant soluble guanylate cyclase) (Rattus norvegicus, UniProt P20595); assay: Stimulation of recombinant soluble guanylate cyclase (sGC) in vitro, haem-containing enzyme; assay type: biochemical
T1 construct: made in house
T1 sequence (P20595 1-619): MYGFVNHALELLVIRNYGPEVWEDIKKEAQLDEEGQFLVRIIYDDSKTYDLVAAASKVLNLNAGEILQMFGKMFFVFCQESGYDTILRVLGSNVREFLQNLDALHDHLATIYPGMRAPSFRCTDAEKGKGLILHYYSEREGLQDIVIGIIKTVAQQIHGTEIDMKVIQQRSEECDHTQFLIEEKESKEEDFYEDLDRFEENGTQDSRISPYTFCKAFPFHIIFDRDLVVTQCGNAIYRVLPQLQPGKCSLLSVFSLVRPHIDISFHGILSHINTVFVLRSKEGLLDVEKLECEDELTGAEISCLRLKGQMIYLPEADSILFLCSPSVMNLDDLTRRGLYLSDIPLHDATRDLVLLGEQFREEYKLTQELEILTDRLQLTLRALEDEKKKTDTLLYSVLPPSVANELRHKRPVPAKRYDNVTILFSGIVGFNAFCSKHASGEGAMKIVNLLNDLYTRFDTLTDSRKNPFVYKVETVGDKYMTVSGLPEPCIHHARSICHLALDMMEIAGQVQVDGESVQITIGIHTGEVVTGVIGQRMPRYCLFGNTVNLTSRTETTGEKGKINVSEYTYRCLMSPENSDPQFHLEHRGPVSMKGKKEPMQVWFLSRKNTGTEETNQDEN
T1 sequence (P19686 1-690 partner): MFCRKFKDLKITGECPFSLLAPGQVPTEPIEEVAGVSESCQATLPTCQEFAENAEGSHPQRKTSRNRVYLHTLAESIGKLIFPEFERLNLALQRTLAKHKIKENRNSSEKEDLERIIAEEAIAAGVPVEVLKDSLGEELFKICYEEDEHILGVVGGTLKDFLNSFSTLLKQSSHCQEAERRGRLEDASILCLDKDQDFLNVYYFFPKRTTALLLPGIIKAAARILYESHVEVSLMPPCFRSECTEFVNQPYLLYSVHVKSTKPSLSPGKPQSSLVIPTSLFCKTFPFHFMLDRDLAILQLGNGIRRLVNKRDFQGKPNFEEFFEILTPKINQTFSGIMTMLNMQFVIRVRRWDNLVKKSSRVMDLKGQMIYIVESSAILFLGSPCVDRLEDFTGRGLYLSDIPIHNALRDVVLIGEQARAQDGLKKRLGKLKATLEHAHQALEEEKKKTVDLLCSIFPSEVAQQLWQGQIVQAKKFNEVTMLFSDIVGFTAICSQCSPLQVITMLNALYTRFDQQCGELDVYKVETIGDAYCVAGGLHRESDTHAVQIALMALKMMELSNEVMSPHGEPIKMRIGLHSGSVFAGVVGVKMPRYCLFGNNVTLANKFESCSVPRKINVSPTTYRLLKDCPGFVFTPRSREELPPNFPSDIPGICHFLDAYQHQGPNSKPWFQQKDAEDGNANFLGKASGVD
Protocol: (§1) The investigations on the stimulation of recombinant soluble guanylate cyclase (sGC) and the compounds according to the invention with and without sodium nitroprusside and with and without the haem-dependent sGC inhibitor 1H-1,2,4-oxadiazole-(4,3a)-quinoxalin-1-one (ODQ) were carried out by the method described in detail in the following literature reference: M. Hoenicka, E. M. Becker, H. Apeler, T. Sirichoke, H. Schroeder, R. Gerzer and J.-P. Stasch: Purified soluble guanylyl cyclase expressed in a baculovirus/Sf9 system: stimulation by YC-1, nitric oxide, and […]. J. Mol. Med. 77 (1999): 14-23.
(§2) Activation of sGC by a test substance is stated as n-fold stimulation of basal activity.

[2] = target: T2, Haem-free sGC (recombinant soluble guanylate cyclase) (Rattus norvegicus, UniProt P20595); assay: Stimulation of recombinant soluble guanylate cyclase (sGC) in vitro, haem-free enzyme; assay type: biochemical; conditions: for Stimulation (n-fold), haem-free sGC, basal: Tween 20 0.5%
T2 construct: made in house
T2 sequence (P20595 1-619): T1 sequence (P20595 1-619)
T2 sequence (P19686 1-690 partner): T1 sequence (P19686 1-690 partner)
Protocol: as §1
Haem-free guanylate cyclase was obtained by adding Tween 20 to the sample buffer (final concentration 0.5%).
as §2

[3] = ODQ 10 μM, Ex. 87 concentration 0
[4] = 0.1 μM test compound + ODQ 10 μM
[5] = 1.0 μM test compound + ODQ 10 μM
[6] = 10 μM test compound + ODQ 10 μM

**Q.** With `CC(C)(C)c1ccc(COc2ccccc2CCN(CCCCC(=O)O)Cc2ccc(C(=O)O)cc2)cc1` [Example 30] as the compound, how does the IC50 (arteria saphena rings) read?
**A.** The IC50 was 17 nM.

**Q.** How did the IC50 (arteria saphena rings) turn out when `O=C(O)CCCCCN(CCc1ccccc1OCc1ccc(-c2ccccc2)cc1)Cc1ccc(C(=O)O)cc1` [Example 56] was run?
**A.** The IC50 was 73 nM.

**Q.** For `C#CCOc1ccccc1CCN(CCCCC(=O)O)Cc1ccc(C(=O)O)cc1` [Example 37], which IC50 (arteria saphena rings) is on record?
**A.** Its IC50 is 830 nM.

**Q.** With `O=C(O)CCCCN(CCc1ccccc1OCc1ccc(/C=C/c2ccccc2)cc1)Cc1ccc(C(=O)O)cc1` [Example 33] as the compound, how does the IC50 (arteria saphena rings) read?
**A.** Its IC50 is 0.5 nM.

**Q.** Which IC50 (arteria saphena rings) does the source give for `O=C(O)CCCCN(CCc1ccccc1OCc1ccc(C2CCCCC2)cc1)Cc1ccc(C(=O)O)cc1` [Example 70] here?
**A.** The IC50 was 0.2 nM.

**Q.** Which IC50 (arteria saphena rings) does the source give for `O=C(O)CCCCN(CCc1ccccc1OCc1ccc(OCc2ccccc2)cc1)Cc1ccc(C(=O)O)cc1` [Example 32] here?
**A.** The IC50 was 6.5 nM.

**Q.** Which IC50 (arteria saphena rings) does the source give for `O=C(O)CCCCN(CCc1ccccc1OCc1ccc(Oc2ccc(Cl)cc2)cc1)Cc1ccc(C(=O)O)cc1` [Example 28] here?
**A.** Its IC50 is 2.8 nM.

**Q.** How did the IC50 (arteria saphena rings) turn out when `O=C(O)CCCCN(CCc1ccccc1OCc1ccc(-c2csc(C(F)(F)F)n2)cc1)Cc1ccc(C(=O)O)cc1` [Example 72] was run?
**A.** Its IC50 is 29 nM.

**Q.** For `COc1ccc(-c2ccc(COc3ccccc3CCN(CCCCC(=O)O)Cc3ccc(C(=O)O)cc3)cc2)cc1` [Example 88], which IC50 (arteria saphena rings) is on record?
**A.** The IC50 was 0.4 nM.

**Q.** Which IC50 (arteria saphena rings) does the source give for `O=C(O)CCCCN(CCc1ccccc1OCc1ccc(CCc2ccccc2)cc1)Cc1ccc(C(=O)O)cc1` [Example 8, 4-[((4-Carboxybutyl)-{2-[(4-phenethylbenzyl)oxy]phenethyl}amino)-methyl]benzoic Acid Hydrochloride] here?
**A.** Its IC50 is 0.4 nM.

**Q.** Which results are given for `O=c1onc2cnc3ccccc3n12` [ODQ, 1H-1,2,4-oxadiazol-(4,3a)-quinoxalin-1-one, reference compound]?
**A.** Stimulation (n-fold), haem-containing sGC, ODQ alone [1, 3]: 1 n-fold; Stimulation (n-fold), haem-free sGC, ODQ alone [2, 3]: 1 n-fold

**Q.** With `O=C(O)CCCCN(CCc1ccccc1OCc1ccc(Oc2ccc(C(F)(F)F)cc2)cc1)Cc1ccc(C(=O)O)cc1` [Example 86] as the compound, how does the IC50 (arteria saphena rings) read?
**A.** Its IC50 is 0.4 nM.

**Q.** `O=C(O)CCCCN(CCc1ccccc1OCc1ccc(-c2ccc(Cl)cc2)cc1)Cc1ccc(C(=O)O)cc1` [Example 87] was tested. Which IC50 (arteria saphena rings) did it give?
**A.** The IC50 was 0.5 nM.

**Q.** What about the “Stimulation (n-fold), haem-containing sGC, +ODQ (10 μM)” value [1, 4] of the same compound?
**A.** Its value is 132 n-fold.

**Q.** What about the “Stimulation (n-fold), haem-containing sGC, +SNP (0.1 μM)” value (“Stimulation (n-fold) … (0.1 μM)” for short) ([1]; 0.1 μM test compound + SNP 0.1 μM) of the same compound?
**A.** Its value is 41 n-fold.

**Q.** What about the “Stimulation (n-fold), haem-containing sGC, basal” value ([1]; 0.1 μM test compound, n-fold stimulation of basal activity) of the same compound?
**A.** The value was 15 n-fold.

**Q.** What about the “Stimulation (n-fold), haem-containing sGC, basal” value ([1]; 1.0 μM test compound) of the same compound?
**A.** The value was 18 n-fold.

**Q.** And the “Stimulation (n-fold), haem-containing sGC, +ODQ (10 μM)” value [1, 5]?
**A.** Its value is 115 n-fold.

**Q.** And the “Stimulation (n-fold) … (0.1 μM)” value ([1]; 1.0 μM test compound + SNP 0.1 μM)?
**A.** The value was 47 n-fold.

**Q.** And the “Stimulation (n-fold), haem-containing sGC, basal” value ([1]; 10 μM test compound)?
**A.** The value was 24 n-fold.

**Q.** And the “Stimulation (n-fold), haem-containing sGC, +ODQ (10 μM)” value [1, 6]?
**A.** The value was 181 n-fold.

**Q.** What about the “Stimulation (n-fold) … (0.1 μM)” value ([1]; 10 μM test compound + SNP 0.1 μM) of the same compound?
**A.** Its value is 60 n-fold.

**Q.** What about the “Stimulation (n-fold), haem-free sGC, +ODQ (10 μM)” value [2, 4] of the same compound?
**A.** The value was 361 n-fold.

**Q.** What about the “Stimulation (n-fold), haem-free sGC, basal” value ([2]; 0.1 μM test compound) of the same compound?
**A.** The value was 353 n-fold.

**Q.** And the “Stimulation (n-fold), haem-free sGC, +ODQ (10 μM)” value [2, 5]?
**A.** Its value is 457 n-fold.

**Q.** What about the “Stimulation (n-fold), haem-free sGC, basal” value ([2]; 1.0 μM test compound) of the same compound?
**A.** Its value is 491 n-fold.

**Q.** And the “Stimulation (n-fold), haem-free sGC, +ODQ (10 μM)” value [2, 6]?
**A.** The value was 477 n-fold.

**Q.** And the “Stimulation (n-fold), haem-free sGC, basal” value ([2]; 10 μM test compound)?
**A.** Its value is 529 n-fold.

**Q.** `O=C(O)c1ccc(CN(CCOc2ccc(C(=O)O)cc2)CCc2ccccc2OCCCCCc2ccccc2)cc1` [Example 98] was tested. Which IC50 (arteria saphena rings) did it give?
**A.** Its IC50 is 3.4 nM.

**Q.** How did the IC50 (arteria saphena rings) turn out when `O=C(O)CCCCN(CCc1ccccc1OCc1ccc2c(c1)CCCC2)Cc1ccc(C(=O)O)cc1` [Example 76] was run?
**A.** The IC50 was 29 nM.

**Q.** For `CCCCCCCCOc1ccccc1CCN(CCOc1ccc(C(=O)O)cc1)Cc1ccc(C(=O)O)cc1` [Example 103], which IC50 (arteria saphena rings) is on record?
**A.** The IC50 was 3.9 nM.

**Q.** For `O=C(O)c1ccc(CN(CCOc2ccc(C(=O)O)cc2)CCc2ccccc2OCc2ccc(C3CCCCC3)cc2)cc1` [Example 102], which IC50 (arteria saphena rings) is on record?
**A.** The IC50 was 0.2 nM.
